Literature values, collected in article PMC4838521 (ChemMedChem, 2015).

Target: YopH-NT (Yersinia pestis, UniProt O68720)
Details: read-out: Kd for YopH-NT

YopH-NT, sequence (O68720 1-129 limits assumed): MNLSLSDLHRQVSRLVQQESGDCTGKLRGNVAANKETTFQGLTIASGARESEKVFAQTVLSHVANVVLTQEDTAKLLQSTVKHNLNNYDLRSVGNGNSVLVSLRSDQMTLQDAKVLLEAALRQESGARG

Row | Substance | Kd
1 | cyclo-DE(pY)DDPfK | ~15 µM
2 | cyclo-DE(pY)LDPfK | ~23 µM
